# Data published in patent publication US20160022761A1, “DEREPRESSION OF IMMUNITY IN ONCOLOGICAL AND VIROLOGICAL CONDITIONS BY HIGH MOBILITY GROUP BOX 1 DERIVED PEPTIDES” (priority 2014, published 2016).
# Tested on: human Treg cells
# Assay: Inhibitory activity of human Treg cells in in vitro assays of T cell stimulation (anti-CD3 or MLR, tritiated thymidine proliferation)
# Assay type: cell-based
# Conditions: all treatment groups (0.01 ug/ml, 0.1 ug/ml and 1 ug/ml), 72 hours culture; compared to controls that received scrambled peptide (FFSAFLSEC)
# Procedure: Isolation of human CD4+, CD4+CD25+, and CD4+CD25− T cells was performed from PBMC by using human Treg isolation kits (Miltenyi Biotec), respectively, according to the manufacturer's instructions. The purity of the resulting T cell populations was confirmed to be >95% by flow cytometry.
# Inhibitory activity of human Treg cells was measured in in vitro assays of T cell stimulation. CD25-depleted spleen cells (10^5 cells/well) from human PBMC (105) were stimulated in vitro with the following: anti-human CD3 Ab (BD Pharmingen) or human PBMC (105) from a different donor (to induce a MLR). Cultures were maintained for 72 hours in the presence of SAFFLFCSE peptide at concentrations of 0.01 ug/ml, 0.1 ug/ml and 1 ug/ml. Tritiated thymidine was added at a concentration of 1 microcurie per well for the last 12 hours of culture. Scintillation counting was used to assess proliferation.
sequence,measurement,value
SAFFLFCSE,inhibition of T regulatory cell suppressive activity,> 80%
